Source: ChEMBL document CHEMBL3526034 (Drug Metab Dispos, 2013)

Columns and labels:
[1] = biological target: T1, UDP-glucuronosyltransferase 1A1 (Homo sapiens, UniProt P22309); test: (§1) Drug metabolism in UDPGA-fortified human liver microsomes assessed as UGT1A1-mediated DTG glucuronide M2 ((2S,3S,4S,5R,6S)-6-((4R,12aS)-9-(2,4-difluorobenzylcarbamoyl)-4-methyl-6,8-dioxo-3,4,6,8,12,12a-hexahydro-2H-[1,3]oxazino[3,2-d]pyrido[1,2-a]pyrazin-7-yloxy)-3,4,5-trihydroxytetrahydro-2H-pyran-2-carboxylic acid) formation after 120 mins measured per mg of protein by radio-HPLC analysis; type: ADME
T1 sequence (P22309 whole entry): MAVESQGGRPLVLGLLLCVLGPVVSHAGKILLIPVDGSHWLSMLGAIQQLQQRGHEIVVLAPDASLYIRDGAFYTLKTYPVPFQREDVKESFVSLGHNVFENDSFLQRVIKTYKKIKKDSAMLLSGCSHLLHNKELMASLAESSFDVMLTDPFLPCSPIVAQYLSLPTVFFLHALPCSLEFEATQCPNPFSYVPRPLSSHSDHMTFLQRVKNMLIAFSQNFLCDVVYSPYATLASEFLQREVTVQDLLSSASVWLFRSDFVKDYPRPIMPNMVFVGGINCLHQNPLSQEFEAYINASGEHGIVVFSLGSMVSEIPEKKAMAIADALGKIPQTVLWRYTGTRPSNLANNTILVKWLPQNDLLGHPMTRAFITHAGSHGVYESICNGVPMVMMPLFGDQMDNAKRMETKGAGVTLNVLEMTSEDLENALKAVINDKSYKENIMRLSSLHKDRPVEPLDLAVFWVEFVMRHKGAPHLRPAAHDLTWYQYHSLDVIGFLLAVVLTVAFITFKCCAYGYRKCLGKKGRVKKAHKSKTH

Liver microsome [2] = test: Drug metabolism in NADPH-fortified human liver microsomes assessed as metabolite M3 ((4R,12aS)-N-((3,5-difluorophenyl)(hydroxy)methyl)-7-hydroxy-4-methyl-6,8-dioxo-3,4,6,8,12,12a-hexahydro-2H-[1,3]oxazino[3,2-d]pyrido[1,2-a]pyrazine-9-carboxamide) formation at 5 uM after 120 mins treated 5 mins after selective CYP3A4 inhibitor azamulin addition by radio-HPLC analysis; type: ADME
[3] = biological target: UDP-glucuronosyltransferase 2B7 (Homo sapiens, UniProt P16662); test: Inhibition of human recombinant UGT2B7 expressed in supersomes assessed as 7-HFC glucuronidation up to 100 uM by fluoresence analysis; type: ADME; details: recombinant enzyme
Sequence of UDP-glucuronosyltransferase 2B7 (P16662 whole entry): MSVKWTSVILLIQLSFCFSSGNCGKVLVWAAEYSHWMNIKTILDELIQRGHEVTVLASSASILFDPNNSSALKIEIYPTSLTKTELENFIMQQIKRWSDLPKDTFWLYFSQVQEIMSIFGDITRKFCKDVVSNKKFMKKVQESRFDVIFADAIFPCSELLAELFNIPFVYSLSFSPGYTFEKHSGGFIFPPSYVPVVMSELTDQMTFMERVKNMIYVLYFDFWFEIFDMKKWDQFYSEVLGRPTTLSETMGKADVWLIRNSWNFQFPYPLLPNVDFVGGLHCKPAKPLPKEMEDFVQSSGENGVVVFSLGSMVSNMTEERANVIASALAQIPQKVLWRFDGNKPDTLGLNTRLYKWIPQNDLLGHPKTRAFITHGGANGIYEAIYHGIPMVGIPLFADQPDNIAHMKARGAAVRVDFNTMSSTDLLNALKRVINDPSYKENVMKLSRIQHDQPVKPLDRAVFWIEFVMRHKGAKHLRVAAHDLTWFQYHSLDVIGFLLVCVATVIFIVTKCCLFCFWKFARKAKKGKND

CYP2C19 = CYP2C19 (Homo sapiens, UniProt P33261); test: Inhibition of CYP2C19 in human liver microsomes using S-mephenytoin as substrate at 100 uM preincubated for 20 mins with substrate prior to initiation of reaction with NADPH by HPLC analysis; type: ADME; details: probe S-mephenytoin
Sequence of CYP2C19 (P33261 whole entry): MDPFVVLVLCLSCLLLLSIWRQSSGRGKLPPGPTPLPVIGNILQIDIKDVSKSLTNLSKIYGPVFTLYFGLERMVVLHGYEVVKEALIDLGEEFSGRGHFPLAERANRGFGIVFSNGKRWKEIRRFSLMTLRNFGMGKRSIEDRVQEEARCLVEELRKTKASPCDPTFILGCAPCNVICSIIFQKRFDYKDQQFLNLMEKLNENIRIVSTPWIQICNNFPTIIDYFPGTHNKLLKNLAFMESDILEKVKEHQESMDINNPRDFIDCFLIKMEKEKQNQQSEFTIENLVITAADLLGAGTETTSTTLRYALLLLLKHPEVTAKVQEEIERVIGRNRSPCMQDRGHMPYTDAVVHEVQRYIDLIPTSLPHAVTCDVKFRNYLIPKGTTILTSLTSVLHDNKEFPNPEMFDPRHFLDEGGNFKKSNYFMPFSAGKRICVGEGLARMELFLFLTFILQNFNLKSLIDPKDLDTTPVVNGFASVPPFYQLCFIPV

Cytochrome P450 2B6 = biological target: T2, Cytochrome P450 2B6 (Homo sapiens, UniProt P20813); test: Drug metabolism in supersomes expressing human recombinant CYP2B6 assessed as NADPH-fortified enzyme-mediated metabolite formation at 5 uM after 120 mins by radio HPLC analysis; type: ADME; details: 2 h
T2 sequence (P20813 whole entry): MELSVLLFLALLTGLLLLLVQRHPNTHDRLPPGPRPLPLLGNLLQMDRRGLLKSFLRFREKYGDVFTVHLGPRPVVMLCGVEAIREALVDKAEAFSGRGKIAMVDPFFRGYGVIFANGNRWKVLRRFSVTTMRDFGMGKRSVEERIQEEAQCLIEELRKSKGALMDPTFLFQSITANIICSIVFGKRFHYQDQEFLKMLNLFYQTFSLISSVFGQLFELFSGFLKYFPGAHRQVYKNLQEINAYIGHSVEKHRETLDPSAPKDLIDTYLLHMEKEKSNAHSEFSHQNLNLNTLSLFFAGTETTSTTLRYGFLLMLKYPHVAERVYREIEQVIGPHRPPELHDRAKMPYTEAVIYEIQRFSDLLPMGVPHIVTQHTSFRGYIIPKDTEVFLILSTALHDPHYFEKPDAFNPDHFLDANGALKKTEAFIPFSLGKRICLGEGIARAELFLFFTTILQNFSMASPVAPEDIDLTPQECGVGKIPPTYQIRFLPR

CYP2C9 = CYP2C9 (Homo sapiens, UniProt P11712); test: Inhibition of CYP2C9 in human liver microsomes using diclofenac as substrate at 100 uM preincubated for 20 mins with substrate prior to initiation of reaction with NADPH by HPLC analysis; type: ADME; details: probe diclofenac
Sequence of CYP2C9 (P11712 whole entry): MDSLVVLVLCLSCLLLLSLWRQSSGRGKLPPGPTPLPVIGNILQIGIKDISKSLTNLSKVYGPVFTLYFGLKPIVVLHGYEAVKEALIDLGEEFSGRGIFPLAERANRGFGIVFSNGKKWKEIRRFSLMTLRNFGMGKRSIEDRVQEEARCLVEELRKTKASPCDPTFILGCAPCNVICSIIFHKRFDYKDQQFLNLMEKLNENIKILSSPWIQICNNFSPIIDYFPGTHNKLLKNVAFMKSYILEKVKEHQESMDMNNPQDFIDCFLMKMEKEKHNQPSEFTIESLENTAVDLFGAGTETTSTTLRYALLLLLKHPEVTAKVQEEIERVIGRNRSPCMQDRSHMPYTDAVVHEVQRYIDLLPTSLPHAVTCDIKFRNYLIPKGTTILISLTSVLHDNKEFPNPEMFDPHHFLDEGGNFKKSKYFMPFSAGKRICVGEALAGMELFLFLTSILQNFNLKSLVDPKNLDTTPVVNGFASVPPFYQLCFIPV

Cytochrome P450 1A2 = biological target: T3, Cytochrome P450 1A2 (Homo sapiens, UniProt P05177); test: Metabolism-dependent inhibition of CYP1A2 in human liver microsomes using phenacetin as substrate preincubated for 20 mins with NADPH prior to initiation of reaction with probe substrate by HPLC analysis; type: ADME
T3 sequence (P05177 whole entry): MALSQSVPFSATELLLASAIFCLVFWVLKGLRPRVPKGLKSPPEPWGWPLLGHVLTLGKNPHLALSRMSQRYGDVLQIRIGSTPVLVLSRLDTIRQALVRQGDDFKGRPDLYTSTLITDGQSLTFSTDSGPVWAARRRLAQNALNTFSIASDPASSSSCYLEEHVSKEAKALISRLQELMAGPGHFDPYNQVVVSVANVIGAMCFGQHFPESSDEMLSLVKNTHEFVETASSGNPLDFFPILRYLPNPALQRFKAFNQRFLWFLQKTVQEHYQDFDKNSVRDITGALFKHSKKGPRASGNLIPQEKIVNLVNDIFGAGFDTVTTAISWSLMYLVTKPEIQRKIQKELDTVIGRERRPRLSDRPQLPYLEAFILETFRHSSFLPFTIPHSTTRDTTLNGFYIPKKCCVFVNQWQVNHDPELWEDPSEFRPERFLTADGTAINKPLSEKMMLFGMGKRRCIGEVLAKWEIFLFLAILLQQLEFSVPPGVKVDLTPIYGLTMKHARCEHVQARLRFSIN

Liver microsome [4] = test: as §1, with “as” for “as UGT1A1-mediated”, “metabolite” for “M2”, “at 16 uM treated for 4 hrs” for “after 120 mins measured per mg of protein”; type: ADME
Cytochrome P450 2D6 [5] = biological target: T4, Cytochrome P450 2D6 (Homo sapiens, UniProt P10635); test: Inhibition of CYP2D6 in human liver microsomes using bufuralol as substrate preincubated for 20 mins with substrate prior to initiation of reaction with NADPH by HPLC analysis; type: ADME
T4 sequence (P10635 whole entry): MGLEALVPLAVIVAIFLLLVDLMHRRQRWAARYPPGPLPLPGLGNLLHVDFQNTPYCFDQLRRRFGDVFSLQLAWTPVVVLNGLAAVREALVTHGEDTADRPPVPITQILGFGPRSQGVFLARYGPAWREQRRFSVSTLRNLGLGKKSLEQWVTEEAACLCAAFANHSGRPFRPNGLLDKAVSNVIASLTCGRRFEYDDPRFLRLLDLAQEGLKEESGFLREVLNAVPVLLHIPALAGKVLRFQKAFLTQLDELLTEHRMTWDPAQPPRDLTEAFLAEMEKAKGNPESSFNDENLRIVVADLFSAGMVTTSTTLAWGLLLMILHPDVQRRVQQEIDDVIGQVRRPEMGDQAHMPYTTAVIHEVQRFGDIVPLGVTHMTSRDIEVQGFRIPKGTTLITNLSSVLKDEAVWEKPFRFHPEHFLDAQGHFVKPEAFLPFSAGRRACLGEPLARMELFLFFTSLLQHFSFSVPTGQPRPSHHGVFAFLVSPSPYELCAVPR

[6] = biological target: UDP-glucuronosyltransferase 1A9 (Homo sapiens, UniProt O60656); test: Drug metabolism assessed as UDPGA-fortified human recombinant UGT1A9-mediated DTG glucuronide metabolite ((2S,3S,4S,5R,6S)-6-((4R,12aS)-9-(2,4-difluorobenzylcarbamoyl)-4-methyl-6,8-dioxo-3,4,6,8,12,12a-hexahydro-2H-[1,3]oxazino[3,2-d]pyrido[1,2-a]pyrazin-7-yloxy)-3,4,5-trihydroxytetrahydro-2H-pyran-2-carboxylic acid) formation at 16 uM after 120 mins by radio-HPLC analysis; type: ADME; details: recombinant enzyme
Sequence of UDP-glucuronosyltransferase 1A9 (O60656 whole entry): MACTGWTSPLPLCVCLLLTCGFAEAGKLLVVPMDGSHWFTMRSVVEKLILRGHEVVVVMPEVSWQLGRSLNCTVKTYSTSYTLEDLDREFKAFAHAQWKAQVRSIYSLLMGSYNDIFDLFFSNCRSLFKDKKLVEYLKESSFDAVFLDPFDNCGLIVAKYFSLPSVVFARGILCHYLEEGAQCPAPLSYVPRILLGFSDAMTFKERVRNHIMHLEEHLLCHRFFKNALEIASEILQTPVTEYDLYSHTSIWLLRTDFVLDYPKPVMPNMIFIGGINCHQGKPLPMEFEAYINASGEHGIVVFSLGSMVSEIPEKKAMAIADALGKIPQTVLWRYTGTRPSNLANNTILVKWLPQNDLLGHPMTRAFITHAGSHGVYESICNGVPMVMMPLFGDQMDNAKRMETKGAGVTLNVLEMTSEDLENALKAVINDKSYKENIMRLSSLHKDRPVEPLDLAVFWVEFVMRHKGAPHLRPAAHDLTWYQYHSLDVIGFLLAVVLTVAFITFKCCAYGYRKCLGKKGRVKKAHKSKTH

Cytochrome P450 2C9 = Cytochrome P450 2C9 (Homo sapiens, UniProt P11712); test: Inhibition of CYP2C9 in human liver microsomes using diclofenac as substrate preincubated for 20 mins with substrate prior to initiation of reaction with NADPH by HPLC analysis; type: ADME
Sequence of Cytochrome P450 2C9 (P11712 whole entry): as the sequence (P11712 whole entry) above

[7] = biological target: ATP-dependent translocase ABCB1 (Homo sapiens, UniProt P08183); test: Inhibition of MDR1 (unknown origin) expressed in MDCK2 cells assessed as basolateral to apical transport of [3H]digoxin after 90 mins by liquid scintillation counting analysis; type: ADME, cell-based, MDCK-II
Sequence of ATP-dependent translocase ABCB1 (P08183 whole entry): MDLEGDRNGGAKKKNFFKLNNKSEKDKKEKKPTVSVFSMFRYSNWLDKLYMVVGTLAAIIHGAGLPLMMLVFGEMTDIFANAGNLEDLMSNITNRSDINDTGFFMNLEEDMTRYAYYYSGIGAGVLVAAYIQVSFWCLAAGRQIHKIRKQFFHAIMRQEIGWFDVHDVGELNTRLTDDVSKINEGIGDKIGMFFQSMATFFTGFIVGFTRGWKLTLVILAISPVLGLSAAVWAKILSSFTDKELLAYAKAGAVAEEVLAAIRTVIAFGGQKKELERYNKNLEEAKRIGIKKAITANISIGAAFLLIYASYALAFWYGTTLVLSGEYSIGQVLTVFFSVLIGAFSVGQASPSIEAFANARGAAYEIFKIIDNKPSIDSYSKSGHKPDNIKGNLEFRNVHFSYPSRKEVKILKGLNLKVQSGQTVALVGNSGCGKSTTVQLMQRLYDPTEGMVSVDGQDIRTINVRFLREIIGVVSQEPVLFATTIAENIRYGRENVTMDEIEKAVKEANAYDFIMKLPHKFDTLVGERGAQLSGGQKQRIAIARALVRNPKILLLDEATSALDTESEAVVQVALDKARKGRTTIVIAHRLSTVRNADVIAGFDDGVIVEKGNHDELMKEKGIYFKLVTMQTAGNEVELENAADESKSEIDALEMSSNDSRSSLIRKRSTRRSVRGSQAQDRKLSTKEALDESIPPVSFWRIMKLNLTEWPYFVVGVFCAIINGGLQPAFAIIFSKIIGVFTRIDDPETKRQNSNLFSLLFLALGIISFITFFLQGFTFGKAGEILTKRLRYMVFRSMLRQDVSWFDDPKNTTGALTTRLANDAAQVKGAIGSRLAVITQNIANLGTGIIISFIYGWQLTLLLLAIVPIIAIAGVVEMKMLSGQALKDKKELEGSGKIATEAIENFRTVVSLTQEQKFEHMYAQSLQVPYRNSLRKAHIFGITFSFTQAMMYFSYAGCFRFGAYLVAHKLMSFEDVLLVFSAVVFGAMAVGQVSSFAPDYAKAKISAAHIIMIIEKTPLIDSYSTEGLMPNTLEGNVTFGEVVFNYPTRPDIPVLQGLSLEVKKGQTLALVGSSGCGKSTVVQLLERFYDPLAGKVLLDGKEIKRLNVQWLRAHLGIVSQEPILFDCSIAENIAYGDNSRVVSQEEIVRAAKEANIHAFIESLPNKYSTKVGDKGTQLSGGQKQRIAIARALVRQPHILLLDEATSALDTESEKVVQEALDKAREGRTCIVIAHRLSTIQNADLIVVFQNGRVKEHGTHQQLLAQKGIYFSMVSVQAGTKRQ

Cytochrome P450 2D6 [8] = biological target: T4, Cytochrome P450 2D6; test: Metabolism-dependent inhibition of CYP2D6 in human liver microsomes using bufuralol as substrate preincubated for 20 mins with NADPH prior to initiation of reaction with probe substrate by HPLC analysis; type: ADME
[9] = biological target: Solute carrier organic anion transporter family member 1B3 (Homo sapiens, UniProt Q9NPD5); test: Inhibition of human OATP1B3 expressed in BacMam baculovirus virus infected HEK MSR2 cells using [3H]estradiol 17beta-D-glucuronide as substrate by liquid scintillation counting analysis; type: ADME, HEK293
Sequence of Solute carrier organic anion transporter family member 1B3 (Q9NPD5 whole entry): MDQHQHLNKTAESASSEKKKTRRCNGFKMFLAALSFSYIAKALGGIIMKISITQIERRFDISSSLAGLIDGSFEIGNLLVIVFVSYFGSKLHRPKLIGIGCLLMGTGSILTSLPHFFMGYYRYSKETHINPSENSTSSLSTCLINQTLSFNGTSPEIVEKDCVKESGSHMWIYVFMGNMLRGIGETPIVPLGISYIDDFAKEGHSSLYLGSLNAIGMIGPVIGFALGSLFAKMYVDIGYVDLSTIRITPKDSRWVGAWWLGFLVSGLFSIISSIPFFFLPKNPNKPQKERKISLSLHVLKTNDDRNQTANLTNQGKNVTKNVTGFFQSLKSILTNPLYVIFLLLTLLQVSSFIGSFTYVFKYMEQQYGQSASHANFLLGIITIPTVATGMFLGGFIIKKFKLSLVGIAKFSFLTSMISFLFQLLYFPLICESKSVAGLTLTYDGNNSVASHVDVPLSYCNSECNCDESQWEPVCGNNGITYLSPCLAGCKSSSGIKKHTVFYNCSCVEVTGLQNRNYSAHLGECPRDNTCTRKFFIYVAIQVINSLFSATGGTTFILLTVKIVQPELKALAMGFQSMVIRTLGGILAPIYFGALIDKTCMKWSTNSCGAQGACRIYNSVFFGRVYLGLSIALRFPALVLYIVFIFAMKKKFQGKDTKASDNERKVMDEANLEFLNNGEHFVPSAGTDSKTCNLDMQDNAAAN

C[C@@H]1CCO[C@H]2Cn3cc(C(=O)NCc4ccc(F)cc4F)c(=O)c(O)c3C(=O)N12 [DOLUTEGRAVIR]
Vmax [1]: 409 pmol/min
Drug metabolism (Liver microsome [2]): metabolite_not_detected
inhibition (INH) [3]: Not Active
inhibition at 100 µM (CYP2C19): 20%
Drug metabolism (Cytochrome P450 2B6): metabolite_not_detected
inhibition at 100 µM (CYP2C9): 20%
IC50 (Cytochrome P450 1A2): > 100 µM
Drug metabolism (Liver microsome [4]): metabolite_detected
IC50 (Cytochrome P450 2D6 [5]): > 100 µM
Drug metabolism [6]: metabolite_detected
IC50 (Cytochrome P450 2C9): > 100 µM
IC50 [7]: > 100 µM
IC50 (Cytochrome P450 2D6 [8]): > 100 µM
IC50 [9]: > 100 µM
